Marks after values point to notes of the source that are not given here.
What was measured:
[1] = system: Human Neuroblastoma (SHSY5Y) cells; experiment: mRNA levels by Sybr-Green real-time RT-PCR; type: cell-based
Method: mRNA levels of mitochondrial dynamics, mitochondrial biogenesis and synaptic genes. Using the reagent TriZol (Invitrogen), the inventors isolated total RNA from all DDQ-treated and untreated cells. mRNA levels of mitochondrial dynamic (Drp1, Fis1, Mfn1 and Mfn2), mitochondrial biogenesis genes (PGC1α, Nrf1, Nrf2 and TFAM) and synaptic genes (PSD95, synaptophysin, synapsin 1, synapsin 2, synaptobrevin 1, synaptobrevin 2, synaptopodin, and GAP43) were measured by using Sybr-Green chemistry-based quantitative real time RT-PCR.
FIG. 3 illustrates the experimental strategy of the cell culture work and including treatments. The cells were grown in a medium (1:1 DMEM and F12, 10% FBS, lx penicillin, and streptomycin) at 37° C. in a humified incubator with a 5% CO2 environment. After seeding were allowed to grow for 24-48 hrs or until 80% confluence in six-well plates and used for experiments. The inventors used five different groups of cells—(1) untreated SHSY5Y cells; (2) SHSY5Y cells treated with DDQ (250 nM final concentration) for 24 hrs; (3) SHSY5Y cells incubated with Aβ peptide 1-42 (20 uM final concentration) for 6 hrs; (4) SHSY5Y cells treated Aβ for 6 hrs+DDQ for 24 hrs and (5) SHSY5Y cells treated DDQ for 24 hrs and Aβ for 6 hrs. Half a million SHSY5Y cells were suspended per well into six-well plates. The inventors used Aβ peptide 1-42 and DDQ 250 nM in the experiments. After treatments, the inventors harvested cells, conducted experiments to measure the levels mRNA using Sybr-Green based real-time RT-PCR, proteins using immunoblotting and immunofluorescence analysis and cell viability using MTT assay. The inventors counted the number of mitochondria by electron microscopy.
Quantification of mitochondrial dynamics, biogenesis and synaptic genes expression using real-time RT-PCR. Using the reagent TriZol (Invitrogen), the inventors isolated total RNA from control and experimental groups (FIG. 3). Using primer express Software (Applied Biosystems), the inventors designed the oligonucleotide primers for the housekeeping genes β-actin, mitochondrial structural genes; fission (Drp1 and Fis1); fusion genes (MFN1, MFN2); mitochondrial biogenesis genes PGC1a, Nrf1, Nrf2 and TFAM; and synaptic genes (PSD95, synaptophysin, synapsin 1, synapsin 2, synaptobrevin 1, synaptobrevin 2, synaptopodin, and GAP43). Using SYBR-Green chemistry-based quantitative real-time RT-PCR, the inventors measured mRNA expression of the genes mentioned above as described by Manczak et al..

SHSY5Y cells [2] = experiment: Cell viability test (MTT assay); type: cell-based, Human
Method: Cell viability test (MTT assay). Mitochondrial respiration, an indicator of cell viability, was assessed in the SHSY5Y cells from control and experimental treatments (n=4), using the mitochondrial-dependent reduction of 3-(4,5-dimethyl-thiazol-2-yl)-2,5-diphenyl-tetrazolium bromide (MTT) to formazan as described in Manczak et al..

SHSY5Y cells [3] = experiment: ATP levels in isolated mitochondria; type: cell-based, Human
Method: ATP levels. ATP levels were measured in mitochondria isolated from SHSY5Y neurons of control and experimental treatments (n=4) using the ATP determination kit (Molecular Probes) as described in Manczak et al..

[4] = Aβ + DDQ (Aβ1-42 20 μM 6 hrs, then DDQ 24 hrs) vs untreated cells
[5] = Aβ + DDQ (Aβ1-42 6 hrs, then DDQ 24 hrs) vs Aβ treated cells
[6] = DDQ 250 nM 24 hrs vs untreated cells
[7] = DDQ + Aβ (DDQ 24 hrs, then Aβ1-42 6 hrs) vs Aβ treated cells
[8] = DDQ + Aβ (DDQ 24 hrs, then Aβ1-42 6 hrs) vs untreated cells
[9] = DDQ + Aβ (DDQ 24 hrs, then Aβ1-42 6 hrs) vs Aβ incubated cells

For `CCOP(=O)(OCC)C(NCCc1ccc(O)c(O)c1)c1ccnc2ccccc12` (stereo not drawn) [DDQ, diethyl(3,4-dihydroxyphenethylamine)(quinolin-4-yl)methylphosphonate], the “Drp1 mRNA fold changes” value [1, 4] was 1.9* fold, the “Fis1 mRNA fold changes” value [1, 4] was −1.2 fold and the “GAP43 mRNA fold changes” value [1, 4] was 1.1 fold. The “Mfn1 mRNA fold changes” value [1, 4] was 1.4 fold, the “Mfn2 mRNA fold changes” value [1, 4] was 1.3 fold and the “Nrf1 mRNA fold changes” value [1, 4] was −1.7* fold. The “Nrf2 mRNA fold changes” value [1, 4] was −1.3 fold, the “PGC1a mRNA fold changes” value [1, 4] was −1.8* fold and the “PSD95 mRNA fold changes” value [1, 4] was −1.4* fold. The “Synapsin1 mRNA fold changes” value [1, 4] was 1.1 fold, the “Synapsin2 mRNA fold changes” value [1, 4] was 1.1 fold and the “Synaptobrevin1 mRNA fold changes” value [1, 4] was −1.1 fold. For the same molecule, the “Synaptobrevin2 mRNA fold changes” value [1, 4] was 1.0 fold, the “Synaptophysin mRNA fold changes” value [1, 4] was −2.4* fold and the “Synaptopodin mRNA fold changes” value [1, 4] was −1.1 fold. For the same molecule, the “TFAM mRNA fold changes” value [1, 4] was −2.0* fold, the “Drp1 mRNA fold changes” value [1, 5] was −1.7* fold and the “Fis1 mRNA fold changes” value [1, 5] was −2.0* fold. For the same molecule, the “GAP43 mRNA fold changes” value [1, 5] was 1.7* fold, the “Mfn1 mRNA fold changes” value [1, 5] was 3.3** fold and the “Mfn2 mRNA fold changes” value [1, 5] was 3.4** fold. For the same molecule, the “Nrf1 mRNA fold changes” value [1, 5] was 2.6 fold, the “Nrf2 mRNA fold changes” value [1, 5] was 2.1 fold and the “PGC1a mRNA fold changes” value [1, 5] was 2.5 fold. For the same molecule, the “PSD95 mRNA fold changes” value [1, 5] was 1.8* fold, the “Synapsin1 mRNA fold changes” value [1, 5] was 2.1* fold and the “Synapsin2 mRNA fold changes” value [1, 5] was 2.4* fold. For the same molecule, the “Synaptobrevin1 mRNA fold changes” value [1, 5] was 2.0* fold, the “Synaptobrevin2 mRNA fold changes” value [1, 5] was 2.1* fold and the “Synaptophysin mRNA fold changes” value [1, 5] was 1.6* fold. For the same molecule, the “Synaptopodin mRNA fold changes” value [1, 5] was 2.0* fold, the “TFAM mRNA fold changes” value [1, 5] was 2.3 fold and the “Drp1 mRNA fold changes” value [1, 6] was −2.2* fold. The “Drp1 mRNA levels, fold decrease” value [1, 6] was 2.2 fold, the “Fis1 mRNA fold changes” value [1, 6] was −4.4*** fold and the “Fis1 mRNA levels, fold decrease” value [1, 6] was 4.4 fold. For the same molecule, the “GAP43 mRNA fold changes” value [1, 6] was 1.2 fold, the “Mfn1 mRNA fold changes” value [1, 6] was 1.7 fold and the “Mfn2 mRNA fold changes” value [1, 6] was 2.3 fold. The “Nrf1 mRNA fold changes” value [1, 6] was 1.9 fold, the “Nrf2 mRNA fold changes” value [1, 6] was 2.7 fold and the “PGC1a mRNA fold changes” value [1, 6] was 1.5 fold. For the same molecule, the “PSD95 mRNA fold changes” value [1, 6] was 1.4 fold, the “Synapsin1 mRNA fold changes” value [1, 6] was 1.0 fold and the “Synapsin2 mRNA fold changes” value [1, 6] was 1.7 fold. For the same molecule, the “Synaptobrevin1 mRNA fold changes” value [1, 6] was 1.0 fold, the “Synaptobrevin2 mRNA fold changes” value [1, 6] was 1.3 fold and the “Synaptophysin mRNA fold changes” value [1, 6] was 1.4 fold. The “Synaptopodin mRNA fold changes” value [1, 6] was 1.0 fold, the “TFAM mRNA fold changes” value [1, 6] was 1.7 fold and the “Drp1 mRNA fold changes” value [1, 7] was −4.6*** fold. The “Fis1 mRNA fold changes” value [1, 7] was −2.5* fold, the “GAP43 mRNA fold changes” value [1, 7] was 1.7* fold and the “Mfn1 mRNA fold changes” value [1, 7] was 2.9** fold. For the same molecule, the “Mfn2 mRNA fold changes” value [1, 7] was 2.9** fold, the “Nrf1 mRNA fold changes” value [1, 7] was 4.9 fold and the “Nrf2 mRNA fold changes” value [1, 7] was 2.6 fold. The “PGC1a mRNA fold changes” value [1, 7] was 3.9 fold, the “PSD95 mRNA fold changes” value [1, 7] was 2.1* fold and the “Synapsin1 mRNA fold changes” value [1, 7] was 2.5* fold. The “Synapsin2 mRNA fold changes” value [1, 7] was 2.9** fold, the “Synaptobrevin1 mRNA fold changes” value [1, 7] was 1.7* fold and the “Synaptobrevin2 mRNA fold changes” value [1, 7] was 2.3* fold. For the same molecule, the “Synaptophysin mRNA fold changes” value [1, 7] was 2.4* fold, the “Synaptopodin mRNA fold changes” value [1, 7] was 2.1* fold and the “TFAM mRNA fold changes” value [1, 7] was 3.2 fold. For the same molecule, the “Drp1 mRNA fold changes” value [1, 8] was −2.1* fold, the “Fis1 mRNA fold changes” value [1, 8] was −1.3 fold and the “GAP43 mRNA fold changes” value [1, 8] was 1.1 fold. For the same molecule, the “Mfn1 mRNA fold changes” value [1, 8] was 1.2 fold, the “Mfn2 mRNA fold changes” value [1, 8] was 1.1 fold and the “Nrf1 mRNA fold changes” value [1, 8] was 1.1 fold. The “Nrf2 mRNA fold changes” value [1, 8] was −1.1 fold, the “PGC1a mRNA fold changes” value [1, 8] was −1.1 fold and the “PSD95 mRNA fold changes” value [1, 8] was −1.2 fold. The “Synapsin1 mRNA fold changes” value [1, 8] was 1.3 fold, the “Synapsin2 mRNA fold changes” value [1, 8] was 1.8* fold and the “Synaptobrevin1 mRNA fold changes” value [1, 8] was −1.4 fold. For the same molecule, the “Synaptobrevin2 mRNA fold changes” value [1, 8] was 1.0 fold, the “Synaptophysin mRNA fold changes” value [1, 8] was −1.6* fold and the “Synaptopodin mRNA fold changes” value [1, 8] was −1.1 fold. The “TFAM mRNA fold changes” value [1, 8] was −1.5* fold, the Cell viability (SHSY5Y cells [2]; [4]) was “unchanged” and the Cell viability (SHSY5Y cells [2]; [6]) was “significantly increased”. The Cell viability (SHSY5Y cells [2]; [9]) was “Significantly increased”, the Cell viability (SHSY5Y cells [2]; [8]) was “unchanged” and the ATP levels (SHSY5Y cells [3]; [4]) was “Significantly increased levels”. For the same molecule, the ATP levels (SHSY5Y cells [3]; Aβ + DDQ (Aβ1-42 6 hrs, then DDQ 24 hrs) vs Aβ incubated cells) was “Significantly increased ATP levels”, the ATP levels (SHSY5Y cells [3]; [6]) was “Significantly increased levels” and the ATP levels (SHSY5Y cells [3]; [9]) was “Significantly increased ATP levels”.
